In paper PMC12087874, “Biaryl Phosphates and Phosphonates as Selective Inhibitors of the Transcription Factor STAT4” (Angewandte Chemie (International Ed. in English), 2025):

What was measured:
Type in all cases: binding
STAT5b = biological target: T1, STAT5b (Homo sapiens, UniProt P51692); assay: Competitive fluorescence polarization (FP) assay, STAT5b SH2 domain; conditions: for Ki: Ki derived from IC50; for IC50: mean ± SD, n = 3
T1 sequence (P51692 1-787): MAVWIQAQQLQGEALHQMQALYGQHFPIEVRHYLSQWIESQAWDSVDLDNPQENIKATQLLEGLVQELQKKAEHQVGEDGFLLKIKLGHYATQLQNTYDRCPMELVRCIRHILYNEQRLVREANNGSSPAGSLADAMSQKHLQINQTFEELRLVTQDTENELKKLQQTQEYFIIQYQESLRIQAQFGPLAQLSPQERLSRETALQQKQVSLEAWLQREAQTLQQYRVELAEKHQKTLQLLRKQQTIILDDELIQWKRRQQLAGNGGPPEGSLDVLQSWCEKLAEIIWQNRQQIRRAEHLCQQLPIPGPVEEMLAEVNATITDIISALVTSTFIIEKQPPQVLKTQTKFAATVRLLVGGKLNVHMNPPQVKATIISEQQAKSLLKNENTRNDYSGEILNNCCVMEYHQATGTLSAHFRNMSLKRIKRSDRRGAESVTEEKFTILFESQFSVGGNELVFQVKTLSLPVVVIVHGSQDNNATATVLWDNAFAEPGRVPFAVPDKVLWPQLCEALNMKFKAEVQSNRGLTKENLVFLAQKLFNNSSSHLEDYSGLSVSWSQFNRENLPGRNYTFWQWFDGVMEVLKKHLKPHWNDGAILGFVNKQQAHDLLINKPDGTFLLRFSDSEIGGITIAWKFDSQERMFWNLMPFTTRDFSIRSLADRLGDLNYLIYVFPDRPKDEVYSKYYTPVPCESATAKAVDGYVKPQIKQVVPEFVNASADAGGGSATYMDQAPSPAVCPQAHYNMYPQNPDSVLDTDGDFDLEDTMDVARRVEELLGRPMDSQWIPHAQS
Experimental: (§1) Fluorescence polarization assays
(§2) Competitive fluorescence polarization assays, which measure the abilities of test compounds (dissolved in DMSO) to displace a fluorescent-labeled peptide from the SH2 domain of a STAT protein, were carried out essentially as described. Proteins were used at the following final concentrations: 23 nM or 28 nM for STAT4; between 56 nM and 91 nM for STAT1; 107 nM or 110 nM for STAT3; between 131 nM and 177 nM for STAT5a; between 62 nM and 85 nM for STAT5b; and 101 nM or 106 nM for STAT6. These concentrations represent the approximate […]
(§3) dissociation constant for peptide binding of the respective protein batches used in the assays.
(§4) The following peptides were used: 5-carboxyfluorescein-GpYLPQNID-OH for STAT4; 5-carboxyfluorescein-GpYDKPHVL for STAT1; 5-carboxyfluorescein-GpYLPQTV-NH2 for STAT3; 5-carboxyfluorescein-GpYLVLDKW for STAT5a/b, and 5-carboxyfluorescein- […]
(§5) Gp[…]-OH for STAT6. All peptides were used at a final concentration of 10 nM. The buffer consisted of 10 mM Tris (pH 8.0), 50 mM NaCl, 1 mM EDTA, 1 mM DTT, 0 .1 % Nonidet P-40 substitute, and 2 % DMSO. After incubation of protein and test compound for 1 h at room temperature, the fluorescent -labeled peptide was added. Samples were transferred to 384 - well microtiter plates and fluorescence polarization was read after an additional 60 min of incubation time. Measurements were performed in triplicate. Percent binding was calculated based on a logarithmic curve fit using OriginPro 8G software. IC 50 values were converted to Ki-values via the published equation[3] using the corresponding Excel spread sheet […]
(§6) https://websites.umich.edu/~shaomengwanglab/software/calc_ki/index.html .
(§7) Error bars represent standard deviations. Ligand efficiencies (LE) were calculated by the formula LE = -1,37 x log Ki / number of non-hydrogen atoms.[4] […]

STAT1 = biological target: T2, STAT1 (Homo sapiens, UniProt P42224); assay: Competitive fluorescence polarization (FP) assay, STAT1 SH2 domain; conditions: for IC50: mean ± SD, n = 3; for Ki: tracer 5-carboxyfluorescein-GpYDKPHVL, Ki derived from IC50
T2 sequence (P42224 1-750): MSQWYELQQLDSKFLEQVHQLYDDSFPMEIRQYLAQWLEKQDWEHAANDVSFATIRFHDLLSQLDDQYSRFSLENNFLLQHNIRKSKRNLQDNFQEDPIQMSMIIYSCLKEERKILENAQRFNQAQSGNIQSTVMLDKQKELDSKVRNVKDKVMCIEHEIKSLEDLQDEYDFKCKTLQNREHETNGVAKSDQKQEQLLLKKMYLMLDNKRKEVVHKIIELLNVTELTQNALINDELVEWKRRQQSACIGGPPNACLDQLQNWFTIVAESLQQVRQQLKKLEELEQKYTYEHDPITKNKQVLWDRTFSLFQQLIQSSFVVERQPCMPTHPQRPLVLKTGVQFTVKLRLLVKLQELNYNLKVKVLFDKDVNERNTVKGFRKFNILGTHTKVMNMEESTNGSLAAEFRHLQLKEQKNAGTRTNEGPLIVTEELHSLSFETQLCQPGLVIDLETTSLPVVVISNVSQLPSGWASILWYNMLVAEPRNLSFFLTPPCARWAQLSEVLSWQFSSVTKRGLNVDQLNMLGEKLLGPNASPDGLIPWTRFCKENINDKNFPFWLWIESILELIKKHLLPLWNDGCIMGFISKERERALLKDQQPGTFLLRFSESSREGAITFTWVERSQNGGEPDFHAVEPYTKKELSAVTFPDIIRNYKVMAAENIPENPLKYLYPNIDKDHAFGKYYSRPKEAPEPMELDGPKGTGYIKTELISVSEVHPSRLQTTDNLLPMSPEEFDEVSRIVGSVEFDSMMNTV
Experimental: as §1, §2, §3, §4, §5, §6, §7

STAT3 = STAT3 (Homo sapiens, UniProt P40763); assay: Competitive fluorescence polarization (FP) assay, STAT3 SH2 domain; conditions: for IC50: mean ± SD, n = 3; for Ki: tracer 5-carboxyfluorescein-GpYLPQTV-NH2, Ki derived from IC50
Experimental: as §1, §2, §3, §4, §5, §6, §7

STAT3, sequence (P40763 whole entry, species assumed, the tested form may be a part): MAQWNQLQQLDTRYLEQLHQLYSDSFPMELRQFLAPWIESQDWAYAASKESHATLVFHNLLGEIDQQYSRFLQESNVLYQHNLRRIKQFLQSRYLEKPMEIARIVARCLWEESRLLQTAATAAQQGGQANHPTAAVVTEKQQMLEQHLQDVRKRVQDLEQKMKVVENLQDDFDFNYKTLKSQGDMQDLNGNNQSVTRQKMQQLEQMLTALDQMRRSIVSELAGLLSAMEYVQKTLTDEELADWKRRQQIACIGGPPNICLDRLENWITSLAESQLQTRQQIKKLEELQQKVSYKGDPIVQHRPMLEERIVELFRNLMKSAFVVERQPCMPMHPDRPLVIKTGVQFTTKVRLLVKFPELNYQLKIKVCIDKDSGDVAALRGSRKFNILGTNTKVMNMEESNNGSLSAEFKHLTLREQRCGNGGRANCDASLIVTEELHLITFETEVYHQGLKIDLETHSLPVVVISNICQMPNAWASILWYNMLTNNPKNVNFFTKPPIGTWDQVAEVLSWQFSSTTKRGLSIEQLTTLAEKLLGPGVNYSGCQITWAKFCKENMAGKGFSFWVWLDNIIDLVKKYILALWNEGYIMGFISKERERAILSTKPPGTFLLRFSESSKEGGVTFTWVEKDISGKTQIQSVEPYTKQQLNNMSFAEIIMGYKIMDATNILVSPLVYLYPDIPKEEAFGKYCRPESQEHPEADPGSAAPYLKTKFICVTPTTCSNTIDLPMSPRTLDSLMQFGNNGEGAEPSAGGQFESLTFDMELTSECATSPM

SMILES | Ki (STAT5b) | IC50 (STAT5b) | IC50 (STAT1) | Ki (STAT1) | IC50 (STAT3) | Ki (STAT3)
O=P(O)(O)Oc1ccc(-c2ccccc2)cc1 [Compound 1, para‐biphenyl phosphate] | 47 ± 3 µM | 95 ± 6 µM | 16 ± 3 µM | 8.1 ± 1.4 µM | 18 ± 3 µM | 8.4 ± 1 µM
O=P(O)(O)Oc1ccc(-c2ccccc2)cc1F [Compound 6h] | 45 ± 7 µM | 91 ± 14 µM | 13 ± 1 µM | 6.3 ± 0.6 µM | 9.1 ± 0.6 µM | 4.5 ± 0.3 µM
Cc1cc(-c2ccc(C(F)(F)P(=O)(O)O)c(F)c2)cs1 [Compound 8k] | 64 ± 7 µM | 130 ± 14 µM | 48 ± 4 µM | 24 ± 2 µM | 31 ± 4 µM | 15 ± 2 µM
O=P(O)(O)Oc1ccc(-c2ccc3ccccc3c2)cc1F [Compound 6m] | 26 ± 2 µM | 52 ± 4 µM | 7.8 ± 0.6 µM | 3.8 ± 0.3 µM | 10 ± 1 µM | 5 ± 0.5 µM
O=P(O)(O)Oc1ccc(-c2ccc3ccccc3c2)cc1 [Compound 6g] | 53 ± 5 µM | 109 ± 11 µM | 22 ± 2 µM | 11 ± 1 µM | 37 ± 2 µM | 18 ± 1 µM
O=P(O)(O)C(F)(F)c1ccc(-c2ccc3ccccc3c2)cc1F [Compound 8a] | 39 ± 1 µM | 79 ± 3 µM | 63 ± 3 µM | 36 ± 2 µM | 44 ± 2 µM | 22 ± 1 µM
